# Experimental data taken from PubChem BioAssay AID540258 (Broad Institute, 2011).
# Calls of active or inactive are those of the source.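 Rule for the calls: active = fitted curve reaching 40% activation at or below the top valid dose tested; inconclusive = flat curve at 30 to 70% activation, or poor fit; inactive = the rest.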
# Test system: SK-MEL-5 TRPM1 promoter luciferase reporter, 24 h
# Assay: activation of TRPM1 promoter luciferase in melanoma cells – SK-MEL-5 cells, cherry-pick samples, dose response (AID 540258);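 note: potency for activators that raise TRPM1 promoter luciferase signal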
row,Compound,AC40
1,N#C/C(C(=O)N1CCCCC1)=C1\Nc2ccccc2S1,5.02 µM
2,CCCCN1CCc2c([nH]c3c(C)cccc23)C1=O,> 35 µM (inactive)
3,CN1CCN(/N=C/c2ccc(Br)cc2)CC1,6 µM
4,Oc1ccc(-c2nccc(-c3ccccn3)n2)cc1,4.35 µM
5,COc1cc(O)c2c(=O)cc(-c3ccccc3)oc2c1,14.2 µM
6,Nc1nc2ccccc2cc1-c1cccs1,6.26 µM
7,CC(C)(C)c1ccc(C(=O)NCc2ccccc2)cc1,8.05 µM
8,Cc1nc(-c2noc(-c3ccccc3Cl)n2)c(C(F)(F)F)o1,11.9 µM
9,CCS(=O)(=O)Nc1ccc(C(=O)NCCSc2ccccc2)cc1,34.6 µM
10,COC(=O)c1ccc(N2CCN(c3ccccc3)CC2)nc1,3.85 µM
11,COC(=O)c1cn(CC(=O)NCc2cccs2)c2ccccc12,9.32 µM
12,COc1ccccc1C(=O)NCC(=O)Nc1ccc2c(c1)CCC2,2.42 µM
13,COc1ccc(COc2ccc3ccc(=O)oc3c2)cc1,1.21 µM
14,Oc1[nH]c2ccccc2c1C=Nc1ccccc1,5.55 µM
15,Cc1nn2cc(-c3ccc(Cl)cc3)cnc2c1Cl,8.04 µM
16,Cn1c(C(=O)NCCc2c[nH]c3ccccc23)cc2sccc21,3.4 µM
17,O=C(NCCc1ccccc1)c1nccc2ccccc12,19.2 µM
18,COc1ccc(N=C(C)c2sc3ccccc3c2O)cc1,1.82 µM
19,CC(=O)c1cnc2c(-c3cccc(Br)c3)cnn2c1C,13.2 µM
20,Cc1cc(C)c2nc(NCc3ccccc3O)sc2c1,19 µM
21,Cn1c(SCc2ccccc2Cl)nc2ccccc21,0.794 µM
22,COc1ccc2c(c1OC)C(=O)N1c3ccccc3COC21 (centres undefined),0.955 µM

row,Compound,AC40
1,N#Cc1ccsc1NC(=O)CCc1ccccc1,9.77 µM
2,Cc1cc(C)c(NN=c2c(=O)c3ccccc3c2=O)c(C)c1,0.531 µM
3,O=C(c1cnn2ccccc12)N1CCc2ccccc21,1.28 µM
4,COc1ccc2oc(=O)c(C(=O)N3CCN(c4ccccc4C)CC3)cc2c1,8.14 µM
5,C/C(=N\Nc1ccc(C(=O)O)cc1)c1ccc2c(c1)Nc1ccccc1S2,12.8 µM
6,COC(=O)c1ccc(/C=N/Nc2nc(C)c(C)s2)cc1,1.5 µM
7,CCN(CC)C(=O)CCc1nnc(Cc2cccc(C(F)(F)F)c2)o1,1.95 µM
8,COc1ccc(-c2cc(C(=O)Nc3ccccc3F)on2)cc1,2.53 µM
9,C/C(=N\OC(=O)Nc1ccccc1)c1ccc(C)cc1,3.45 µM
10,CC(C)(C)c1ccc(-c2noc(-c3ccno3)n2)cc1,0.472 µM
11,Cc1ccc(Nc2cc(C)nc(-c3ccccc3)n2)cc1,2.33 µM
12,C/C(Cl)=C/CSc1nn2c(=O)c3ccccc3nc2s1,13 µM
13,CC(C)c1ccc(NC(=O)c2snc3ccc(Cl)cc23)cc1,1.11 µM
14,Cc1nc(N)sc1N=Nc1ccc(F)cc1,6.62 µM
15,O=C(Nc1ccc2oc(-c3ccccc3)nc2c1)c1cccnc1,5.22 µM
16,Cc1cc(NC(=O)Nc2ccc3c(ccn3C)c2)sn1,7.89 µM
17,CCCC(=O)N1c2ccc(-c3csc(N)n3)cc2CC1C (centres undefined),1.65 µM
18,[O-]/[N+](=C\C=C\c1ccccc1)c1ccccc1,1.68 µM
19,COc1ccc(C)c2sc(=NC(=O)c3ccc(C(C)=O)cc3)n(C)c12,0.119 µM
20,COc1cccc(C2Nc3ccccc3C(=O)N2c2ccc(F)cc2)c1O (centres undefined),23.8 µM
21,CCCc1cc(C(=O)Nc2cc(Cl)ccc2O)no1,2.99 µM
22,CCN(CC)c1ccc(Nc2nc(-c3cccnc3)cs2)cc1,2.64 µM

row,Compound,AC40
1,Cc1ccc(-c2csc(NC(=O)c3ccc(Br)cc3)c2C(=O)O)cc1,6.1 µM
2,COc1ccc2cc(-c3csc(-c4cccnc4)n3)ccc2c1,2.09 µM
3,c1ccc(-c2noc(CCC3CCCC3)n2)cc1,4.35 µM
4,CCS(=O)(=O)N1Cc2ccccc2CC1C(=O)NCc1cccc(OC)c1 (centres undefined),> 35 µM (inactive)
5,c1ccc(-c2noc(COc3ccc4c(c3)OCO4)n2)cc1,2.25 µM
6,COC(=O)C1CCCCN1C(=O)c1ccc2oc(Cc3ccccc3)nc2c1 (centres undefined),3.18 µM
7,Cc1ccccc1Nc1nc(N)nc(COC(=O)c2ccccc2)n1,7.87 µM
8,Cn1ccs/c1=N\C(=O)Nc1ccccc1,1.59 µM
9,Clc1ccc(N/N=C/c2cccnc2)cc1,9.36 µM
10,CC(C)Nc1cc(C(C)(C)C)nc2c(-c3ccccc3)cnn12,8.53 µM
11,NC(=O)c1ccc(-c2noc(-c3cccc(Cl)c3)n2)cc1,3.8 µM
12,O=C(Nc1ccc2c(c1)CCC2)C1CCCN(c2ncccn2)C1 (centres undefined),3.54 µM
13,COc1ccc(-c2csc(N(C)C(=O)c3cccs3)n2)cc1,6.73 µM
14,Cc1cccc2c1-c1sc(C(=O)N3CCCCC3)cc1CO2,2.7 µM
15,Cc1nc2c3cnn(-c4ccc(C)c(C)c4)c3ncn2n1,0.921 µM
16,Cc1cccc(Nc2nc3c(s2)CCCC3)c1,0.993 µM
17,O=C(Nc1ccc(NC(=O)c2ccccc2F)cc1)c1cccs1,4.26 µM
18,Cc1ccc(C)c(NC(=O)c2cc(-c3cc(C)ccc3O)n[nH]2)c1,3.03 µM
19,COC(=O)c1ccc(N=NN2CCCCC2)cc1,1.34 µM
20,O=c1c2ccccc2oc2cc(NCCCn3ccnc3)ccc12,0.989 µM
